The values that follow come from ChEMBL document CHEMBL1201862, “PubChem BioAssay data set” (2004).

Usually EC50 stands for the concentration at which the effect is half-maximal. Usually IC50 stands for the concentration that inhibits the measured activity by half. Usually CC50 stands for the concentration that lowers cell viability or growth by half. A word on the AC50: it is the concentration giving half of the maximal activity seen.

The nature of test [1]: PKA-R1A complex activators, counter-screen titration – biochemical, Cy5-IP20 fluorescence polarization, 1536-well, triplicate, counter-screen for PKA-R2B activator project, dose response (AID 504896).
Test [2] is described as follows: Fluorescence polarization-based biochemical high throughput dose response assay for activators of the Protein Kinase A-R2B (PKA-R2B) complex. [Related pubchem assays (depositor defined):AID504700, AID504704, AID504796, AID504797]. (Fluorescence polarisation rises when a labelled molecule tumbles more slowly, as on binding a larger partner.)
The subject of test [3] is CHO. Kind of test: CHO cell viability loss, potency – luminescence, cytotoxicity control for TLR9-MyD88 binding inhibitor project, dose response (AID 588339).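 Also: CHO cells stably coexpressing TLR9 and MyD88 fusions from primary screen; compound exposure lasted 48 hours before viability readout.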 Conditions: Cricetulus griseus. Type of test: functional, cell-based, hamster.
Test [4] deals with Beta Lactamase (Pseudomonas aeruginosa, UniProt Q932Y6). Briefly: BLA reporter interference, concentration series – BLA reporter cells, FRET fluorescence, artefact control for TLR9-MyD88 binding inhibitor project, dose response (AID 588341).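 Also: cell based assay in CHO-K1 cells stably expressing beta-lactamase.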 Type of test: cell-based.
The target of test [5] is T1, Protein Tat (Human immunodeficiency virus type 1 group M subtype B (isolate HXB2)(HIV-1), UniProt P04608).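 Also: tat binding to TAR RNA read out by fluorescence polarization.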
T1 sequence (P04608 whole entry): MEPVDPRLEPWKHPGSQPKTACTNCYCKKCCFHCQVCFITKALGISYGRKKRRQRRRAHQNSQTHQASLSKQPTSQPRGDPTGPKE
Type of test: functional.

Test [6] can be described thus: viability loss in THP-1 monocytes – THP-1 cells, cytotoxicity control for Vif-APOBEC3G degradation inhibitor project, dose response (AID 1117359). Format: functional. Conditions: THP-1.
Test [7] concerns the target T2, RNA-binding protein pos-1 (Caenorhabditis elegans, UniProt G5EF15).
T2 sequence (G5EF15 whole entry): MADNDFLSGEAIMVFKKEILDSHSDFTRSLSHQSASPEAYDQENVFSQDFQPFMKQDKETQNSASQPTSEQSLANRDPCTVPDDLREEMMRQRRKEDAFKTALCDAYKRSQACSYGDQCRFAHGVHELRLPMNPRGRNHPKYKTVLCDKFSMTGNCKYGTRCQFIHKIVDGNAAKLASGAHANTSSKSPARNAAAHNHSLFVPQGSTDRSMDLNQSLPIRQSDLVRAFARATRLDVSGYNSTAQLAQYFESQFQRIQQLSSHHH
Briefly: disruptors of C. elegans POS-1 RNA interaction – biochemical, fluorescence polarization, dose response (AID 1964).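 Also: purified POS-1 fused to maltose binding protein made in E. coli; potency of compounds blocking POS-1 binding to fluorescent RNA.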

The target in test [8] is T3, Zinc finger protein mex-5 (Caenorhabditis elegans, UniProt Q9XUB2).
T3 sequence (Q9XUB2 whole entry): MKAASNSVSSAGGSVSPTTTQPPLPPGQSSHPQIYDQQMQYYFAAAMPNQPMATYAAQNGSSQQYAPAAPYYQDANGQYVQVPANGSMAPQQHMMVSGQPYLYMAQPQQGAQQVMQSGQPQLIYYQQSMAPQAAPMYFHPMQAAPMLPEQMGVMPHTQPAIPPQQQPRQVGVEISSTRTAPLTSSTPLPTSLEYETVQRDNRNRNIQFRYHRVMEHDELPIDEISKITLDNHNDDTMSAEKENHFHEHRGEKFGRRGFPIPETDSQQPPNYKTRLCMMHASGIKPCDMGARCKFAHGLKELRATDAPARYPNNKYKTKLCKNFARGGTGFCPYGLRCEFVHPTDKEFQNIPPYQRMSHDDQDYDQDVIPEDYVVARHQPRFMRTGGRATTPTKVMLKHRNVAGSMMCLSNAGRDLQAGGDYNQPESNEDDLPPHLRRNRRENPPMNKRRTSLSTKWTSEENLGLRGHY
Briefly: potency of MEX-5 RNA-binding blockers – biochemical, C. elegans, fluorescence polarization, dose response (AID 1960).

The target of test [9] is Keap1/Nrf2 (Homo sapiens, UniProt Q14145). Briefly: disruptors of Keap1 binding to Nrf2 peptide – biochemical, fluorescence polarization, cherry-picked samples, dose response (AID 588683).
In test [10] the target is T4, Short transient receptor potential channel 4 (Mus musculus, UniProt Q9QUQ5).
T4 sequence (Q9QUQ5 whole entry): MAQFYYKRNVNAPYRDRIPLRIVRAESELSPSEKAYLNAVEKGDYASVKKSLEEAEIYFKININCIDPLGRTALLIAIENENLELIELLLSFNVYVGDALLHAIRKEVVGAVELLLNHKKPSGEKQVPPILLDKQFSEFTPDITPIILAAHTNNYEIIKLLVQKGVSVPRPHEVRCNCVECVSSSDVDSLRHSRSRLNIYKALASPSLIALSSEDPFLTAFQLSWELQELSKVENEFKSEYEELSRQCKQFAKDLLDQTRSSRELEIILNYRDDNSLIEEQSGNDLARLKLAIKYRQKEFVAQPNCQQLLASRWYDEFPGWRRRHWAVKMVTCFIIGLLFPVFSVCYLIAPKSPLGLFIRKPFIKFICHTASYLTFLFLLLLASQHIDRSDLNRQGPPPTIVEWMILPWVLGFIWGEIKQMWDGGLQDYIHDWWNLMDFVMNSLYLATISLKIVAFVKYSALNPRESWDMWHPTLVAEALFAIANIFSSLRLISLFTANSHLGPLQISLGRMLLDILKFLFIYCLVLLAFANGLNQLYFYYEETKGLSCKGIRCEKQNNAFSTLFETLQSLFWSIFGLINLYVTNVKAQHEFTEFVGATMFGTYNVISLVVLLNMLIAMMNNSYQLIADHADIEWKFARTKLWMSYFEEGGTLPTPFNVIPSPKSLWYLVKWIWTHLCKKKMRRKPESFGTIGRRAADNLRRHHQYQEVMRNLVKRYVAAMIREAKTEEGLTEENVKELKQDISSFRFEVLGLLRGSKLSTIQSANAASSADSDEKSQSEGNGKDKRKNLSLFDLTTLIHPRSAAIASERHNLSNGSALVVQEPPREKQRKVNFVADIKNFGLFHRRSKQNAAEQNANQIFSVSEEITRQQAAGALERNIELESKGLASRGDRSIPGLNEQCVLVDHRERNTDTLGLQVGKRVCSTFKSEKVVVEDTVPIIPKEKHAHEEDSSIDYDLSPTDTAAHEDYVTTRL
Kind of test: SAR Analysis for the identification of selective inhibits of the transient receptor potential cation channel C4 (TRPC4): Automated Electrophysiology_2. [Related pubchem assays (depositor defined):AID2256]. Type of test: functional.

The target of test [11] is T4, Short transient receptor potential channel 4. Briefly: potency of mouse TRPC4 calcium flux blockers – cell-based, HEK293 TRPC4/mu-opioid, DAMGO stimulus, Fluo-4, dose response (AID 492994). Type of test: functional.
Test [12] relates to NIH3T3. Kind of test: mammalian cell viability counter-check – Alamar Blue, fluconazole, dry powder, cytotoxicity control for antifungal drug resistance project, dose response (AID 488809). Type of test: functional, cell-based. Conditions: Mus musculus.
Test [13] deals with T5, Endoribonuclease toxin MazF (Escherichia coli K-12, UniProt P0AE70). Briefly: activation of MazEF endoribonuclease cleavage – biochemical, fluorescence, single-stranded RNA substrate, uHTS hits, dose response (AID 588481). Type of test: functional.
Test [14] deals with T5, Endoribonuclease toxin MazF. Briefly: substrate-only fluorescence increase artefacts – biochemical, single-stranded RNase substrate, counter-screen for MazEF activator project, dose response (AID 588502). Type of test: functional. Background: Counterscreens check selectivity or assay interference.
Test [15] has as its system HEK293. Kind of test: HEK293T cell viability loss, resazurin readout – resazurin fluorescence, cytotoxicity control for NF-kB activator project, SAR follow-up (AID 493251). Format: functional, cell-based. Conditions: Homo sapiens.
In test [16] the test system is Jurkat. Briefly: SAR Analysis of small molecule inhibitors of T-cell specific antigen receptor-induced NF-kB activation in a Jurkat cell line using a luminescence assay - Set 2. [Related pubchem assays (depositor defined):AID435003, AID435012, AID465]. Format: functional, cell-based. Conditions: Homo sapiens.
The subject of test [17] is HEK293. Briefly: SAR Analysis of small molecule inhibitors of T-cell specific antigen receptor-induced NF-kB activation in a HEK-293T cell line using a luminescence assay - Set 2. [Related pubchem assays (depositor defined):AID435003, AID435012, AID489026]. Format: functional, cell-based. Conditions: Homo sapiens.

Active and inactive are the calls of the source. Unless noted, the rule behind the calls is not given here.

T5 sequence (P0AE70 whole entry): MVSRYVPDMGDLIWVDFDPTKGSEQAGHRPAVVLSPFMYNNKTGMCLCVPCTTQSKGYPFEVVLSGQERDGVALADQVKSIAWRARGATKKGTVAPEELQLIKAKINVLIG
Chain of Beta Lactamase (Q932Y6 whole entry): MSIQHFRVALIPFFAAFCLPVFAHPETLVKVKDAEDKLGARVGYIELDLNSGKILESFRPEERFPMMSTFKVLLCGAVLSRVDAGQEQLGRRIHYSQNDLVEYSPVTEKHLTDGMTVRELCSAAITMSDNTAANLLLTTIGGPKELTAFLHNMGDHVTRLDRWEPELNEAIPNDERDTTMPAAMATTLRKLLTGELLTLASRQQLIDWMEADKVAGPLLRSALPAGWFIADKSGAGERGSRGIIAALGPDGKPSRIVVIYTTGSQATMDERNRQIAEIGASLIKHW
Chain of Keap1/Nrf2 (Q16236 whole entry): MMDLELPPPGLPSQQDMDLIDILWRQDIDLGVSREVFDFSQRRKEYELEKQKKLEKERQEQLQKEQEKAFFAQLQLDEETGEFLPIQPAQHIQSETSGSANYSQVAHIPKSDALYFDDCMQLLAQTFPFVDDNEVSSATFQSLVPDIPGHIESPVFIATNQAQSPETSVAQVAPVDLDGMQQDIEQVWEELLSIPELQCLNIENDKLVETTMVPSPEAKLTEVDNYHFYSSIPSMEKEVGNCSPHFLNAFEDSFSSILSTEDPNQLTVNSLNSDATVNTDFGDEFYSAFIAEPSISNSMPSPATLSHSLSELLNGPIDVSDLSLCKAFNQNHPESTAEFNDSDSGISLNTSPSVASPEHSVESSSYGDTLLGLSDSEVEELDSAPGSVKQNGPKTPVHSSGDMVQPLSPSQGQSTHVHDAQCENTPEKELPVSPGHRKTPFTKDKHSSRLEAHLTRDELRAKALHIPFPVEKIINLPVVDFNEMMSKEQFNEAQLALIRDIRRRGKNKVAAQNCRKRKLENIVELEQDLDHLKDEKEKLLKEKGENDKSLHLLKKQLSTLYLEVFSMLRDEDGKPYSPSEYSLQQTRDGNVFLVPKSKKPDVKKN
Chain of Keap1/Nrf2 (Q14145 whole entry): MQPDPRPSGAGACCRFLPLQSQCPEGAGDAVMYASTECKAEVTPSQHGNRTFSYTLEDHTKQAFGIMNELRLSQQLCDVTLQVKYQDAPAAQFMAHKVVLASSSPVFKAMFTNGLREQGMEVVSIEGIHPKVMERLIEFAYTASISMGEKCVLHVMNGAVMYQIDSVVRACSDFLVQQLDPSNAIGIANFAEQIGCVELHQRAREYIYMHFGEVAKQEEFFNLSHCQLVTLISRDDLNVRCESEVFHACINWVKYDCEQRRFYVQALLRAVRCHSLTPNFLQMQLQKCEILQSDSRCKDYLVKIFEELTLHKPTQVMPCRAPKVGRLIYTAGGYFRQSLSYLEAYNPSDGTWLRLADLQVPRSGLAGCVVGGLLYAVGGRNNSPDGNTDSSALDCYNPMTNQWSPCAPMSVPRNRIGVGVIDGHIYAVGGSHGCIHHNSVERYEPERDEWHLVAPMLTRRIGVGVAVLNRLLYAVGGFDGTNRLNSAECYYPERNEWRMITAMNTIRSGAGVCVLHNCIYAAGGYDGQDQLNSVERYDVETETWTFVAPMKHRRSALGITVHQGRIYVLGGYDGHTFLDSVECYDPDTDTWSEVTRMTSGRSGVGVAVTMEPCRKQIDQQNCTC

As to `O=C(O)c1sccc1SCc1ccc(Cl)cc1Cl`, the EC50 in test [1] is > 114 µM (inactive); in [2], 66.9 µM (inactive).

Turning to `N#Cc1ccc(-c2ccco2)nc1SCC(=O)c1ccc(Cl)cc1`, the values for the IC50 in test [3], in test [4] and in test [5] were 16.7 µM (inactive), 10.1 µM (inactive) and > 100 µM (active), respectively. Also, the CC50 in [6] is > 40 µM (active).

Regarding `Cc1cc(C)c[n+](-c2[n-]c(=O)sc2C=NN=C(S)Nc2ccccc2)c1`, the figures for the EC50 in [7] and in [8] were 9.61 µM (active) and 9.02 µM (inconclusive), respectively. In addition, the AC50 in [9] is 39.6 µM (active).

On to `Cc1cc(N2CCCC(O)C2)nc2ccccc12` (configuration not stated), for which the results for the IC50 in [10] and in test [11] were 9.4 µM (active) and 7.32 µM (active), respectively.

For `O=C(Cn1nc(-c2ccccc2)c2ccccc21)N1CCc2ccccc2C1`, in test [12], the AC50 is 34.9 µM (active).

As for `CCCn1c(-c2cccs2)nc2c1c(=O)[nH]c(=O)n2Cc1ccccc1`, the EC50 in [13] and in test [14] was > 99 µM (inactive) in each case.

For `CNC(=O)CCc1nc(-c2ccccc2)no1`, the IC50 is > 80 µM (inactive) in [15], > 79 µM (inactive) in test [16] and > 80 µM (inactive) in [17].
